{"source": "patent US6541463B1", "about": "“Inhibitors of type 5 and type 3 17β-hydroxysteroid dehydrogenase and methods for their use” (Endorecherche, Inc., priority 1998, dated 2003)", "key": {"[1]": {"molecular_target": "T1, human type 2 17β-hydroxysteroid dehydrogenase (Homo sapiens, UniProt P37059)", "T1 construct": "expressed in transfected cells; host or cells: 293 cells, transient transfection; microsomal fraction (100 000×g pellet)", "T1 sequence (P37059 1-387)": "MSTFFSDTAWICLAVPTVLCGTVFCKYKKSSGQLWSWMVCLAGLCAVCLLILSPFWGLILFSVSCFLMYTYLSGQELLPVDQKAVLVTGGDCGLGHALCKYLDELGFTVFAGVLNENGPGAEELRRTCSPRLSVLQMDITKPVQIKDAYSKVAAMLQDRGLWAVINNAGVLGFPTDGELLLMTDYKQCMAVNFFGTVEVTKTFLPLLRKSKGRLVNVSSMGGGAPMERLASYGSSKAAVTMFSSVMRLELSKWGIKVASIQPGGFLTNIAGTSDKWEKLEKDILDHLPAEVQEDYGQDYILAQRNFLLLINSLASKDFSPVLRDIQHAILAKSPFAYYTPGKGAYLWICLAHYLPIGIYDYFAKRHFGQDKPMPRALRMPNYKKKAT", "assay": "Enzymatic assay for type 2 17β-HSD", "format": "biochemical", "settings": "Table 4′, bracketed values, 3 · 10^−8M", "procedure": "The manner in which IC50 was determined is described in “Efficacy of Preferred Inhibitors: VI. Enzymatic assay for types 1, 2, and 3 17β-HSD and types 1 and 3 3α-HSD”. […] numbers of IC50 are desirable. Blank means that a determination was not done. […]\nEnzyme sources. 293 cells transiently transfected with expression vectors encoding types 1, 2 and 3 17β-HSD (Luu-The et al., J. Steroid Biochem. Molec. Biol., 55: 581-587, 1995), types 1 and 2 5α-reductase (Luu-The et al., J. Invest. Dermatol., 102: 221-226, 1994) and types 1 and 3 3α-HSD (Dufort et al. Biochem. Biophys. Res. Commun. 228: 474-479, 1996), using the calcium phosphate procedure (Kingston et al., In: Current Protocols in Molecular Biology. Edited by E. M. Ausbel, R. Brent, R. E. Kingston, D. D. Moore, J. G. Seidman, J. A. Smith, K. Struhl. John Wiley & Sons, New York, pp. 9.1.1-9.1.9, 1991; Luu-The et al., J. Invest. Dermatol., 102: 221-226, 1994). For assays using cell subfractions, cells were sonicated in 50 mM sodium phosphate buffer (pH 7.4), containing 20% glycerol and 1 mM EDTA and centrifuged at 10 000×g for 30 min before centrifugation for 100 000×g for 1 h to separate the mitochondrial and microsomal fractions, respectively. The cytosol fractions (100 000×g supernatant) was used to determine type 1 activity while the microsomal fraction (pellet at 100 000×g) was used for measurement of types 2 and 3 17β-HSD activities.\nIncubation. The enzymatic reaction was carried out at 37° C. in 1 ml of 50 mM sodium phosphate buffer, pH 7.4, containing 20% glycerol, 1 mM EDTA, and 2 mM cofactors (NADPH or AND^+) for 1 h in the presence of 0.1 μM ^14C-labeled substrate: estrone and 4-dione for types 1 and […] 17β-HSD, respectively, testosterone for type 2 17β-HSD as well as types 1 and 2 5α-reductases, DHT for types 1 and 3 3α-HSD activities, and the indicated concentration of inhibitor.\nExtraction of metabolites, migration on TLC and quantification were as described above for the assay of type 5 17β-HSD."}, "[2]": {"molecular_target": "T2, human type 5 17β-hydroxysteroid dehydrogenase (Homo sapiens, UniProt P42330)", "T2 construct": "screen again a human placental λgt11 cDNA to get the full length cDNA clone; expressed in transfected cells; host or cells: human embryonal kidney 293 cells (pCMV / pCMV-neo vector)", "T2 sequence (P42330 1-323)": "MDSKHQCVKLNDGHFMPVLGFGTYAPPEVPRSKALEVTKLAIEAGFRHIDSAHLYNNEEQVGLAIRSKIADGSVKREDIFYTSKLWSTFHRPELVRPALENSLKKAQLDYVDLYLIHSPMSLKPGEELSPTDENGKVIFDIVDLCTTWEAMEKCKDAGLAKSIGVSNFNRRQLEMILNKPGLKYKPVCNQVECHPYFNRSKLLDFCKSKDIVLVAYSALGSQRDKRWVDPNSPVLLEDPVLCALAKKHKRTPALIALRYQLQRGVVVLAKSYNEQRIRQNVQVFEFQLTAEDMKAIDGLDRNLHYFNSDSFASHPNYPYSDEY", "assay": "Inhibition of human type 5 17β-HSD activity in transfected 293 cells", "format": "cell-based", "settings": "Table 4′; read-out: Inhibition Type V 17β-HSD IC50", "procedure": "The manner in which IC50 was determined is described in “Efficacy of the Preferred Inhibitors”. Lower numbers for IC50 are desirable.\nUsing a oligoprimer pair (5′-GGA-AAT-CGT-GAC-AGG-GAA-TGG-ATT-CCA-AAC-AG-3′, 5′-GGA-ATT-CTT-TAT-TGT-ATT-TCT-GGC-CTA-TGG-AGT-GAG-3′) derived from human aldoketoreductase (Qin et al., J. Steroid Biochem. Molec. Biol. 46: 673-679, 1993) and polymerase chain reaction (PCR), we have amplified from a human placental λgt11 cDNA library (Clontech Laboratories Inc., Palo Alto, Calif.) a cDNA fragment that was used as probe to screen again a human placental λgt11 cDNA to get the full length cDNA clone. The amplified cDNA fragment was purified on agarose gel and labeled with [α^32P]dCTP (Amersham Corp.) using the random primer labeling kit from Pharmacia Inc. PCR amplification reaction medium contained 50 mM KCl, 10 mM Tris-HCl, pH 8.3, 0.1% gelatin, 1 mM MgCl2, 250 μM dNTP, 0.25 μM oligonucleotide primers, and 200 ng of DNA prepared from human placental λgt11 cDNA library. The aqueous phase was overlaid with 75 μL of mineral oil to avoid evaporation. The mixture was heated at 98° C. for 5 min, following the temperature reduction to 72° C., 1 unit of Taq DNA polymerase was added. Using a DNA Thermal Cycler (Perkin-Elmer Corp.), 30 cycles of amplification were carried out using a step program (94° C., 1 min; 60° C., 1 min; and 72° C., 1 min)/cycle.\nApproximately 5×10^5 recombinant phage plaques were screened with 1.5×10^6 cpm/ml of the probe. Prehybridization was performed for 4 h at 42° C. in 50% formamide, 5× Denhardt's solution (1× Denhardt's being 0.02% polyvinyl pyrrolidone, 0.02 Ficoll, 0.02 bovine serum albumin), 5×SSPE (1×SSPE being 0.18M NaCl, 10 mM NaH2PO4, pH 7.4, 1 mM EDTA), 0.1% SDS, and 100 μg/ml yeast tRNA. The probe was denatured by heating at 100° C. for 5 min, before being added to the hybridization solution at 42° C. overnight. Filters were then washed twice at room temperature in 2×SSC (1×SSC being […], pH 7.0), 0.1% SDS, and twice in 0.1×SSC, 0.1% SDS at 60° C. Positive recombinant plaques were purified by replating twice and grown in liquid culture. Phage DNA were isolated by centrifugation for 90 min at 105,000×g, and DNA was then isolated by phenol extraction and precipitation with isopropanol (Karen et al. 1987; In: Current Protocols in Molecular Biology (F. M. Ausubel, R. Brent, E. Kingston, D. D. Moore, T. G. Seidman, T. A. Smith and K. Struhl, eds), Wiley & Sons, New York, pp. 1.13.1-1.13.6).\nThe phage DNA were digested with EcoRI restriction enzymes and the resulting cDNA fragments were inserted into the EcoRI site downstream to the cytomegalovirus (CMV) promoter of the pCMV vector (kindly provided by Dr. Matthew, Cold Spring Harbor, N.Y., USA). Recombinant pCMV plasmids were amplified in Escherichia Coli DH5α competent cells, and were isolated by alkaline lysis procedure (Maniatis et al., In: Molecular cloning: a laboratory manual, Cold Spring Harbor Laboratory., 1982). Sequencing of double-stranded plasmid DNA was performed according to the dideoxy chain termination method (Sanger et al., PNAS 74: 5453-5467, 1977) using a T7 DNA polymerase sequencing kit (Pharmacia LKB Biotechnology). To avoid errors, all sequences were determined by sequencing both strands of the DNA. Oligonucleotide primers were synthesized in our laboratory with a 394 DNA/RNA synthesizer (Applied Biosystem).\nThe pCMV vector contain 576 nucleotides of the pCMV promoter (followed by 432 bp of small t intron (fragment 4713-4570) and poly adenylation signal (2825-2536)of SV40, followed by 1989 bp of the Pvu II(628)-AatII (2617) fragment from pUC 19 vector (New England Biolabs) that contains an E. Coli origin of replication and an ampicillin resistance gene for propagation in E. Coli. […]"}, "[3]": {"system": "Shionogi mouse mammary carcinoma cells", "assay": "Androgenic activity: stimulation of proliferation of Shionogi cells", "format": "cell-based", "settings": "Table 4′", "procedure": "In column 9, the androgenic activity of preferred type 5 inhibitors expressed as the percentage of stimulation of proliferation of Shionogi cells at concentrations of 10^−7 M (left number) and 10^−6 M (right number) of inhibitor. The manner in which the stimulation is determined is described in “Other Tests; B-Androgenic/Antiandrogenic Activity”. Lower numbers are desirable. ND means that a determination was not done.\n(§1) Androgenic/antiandrogenic activity of some preferred compounds has been measured using the Shionogi mouse mammary carcinoma cells.\n(§2) Minimal essential culture medium (MEM), non-essential amino acids, and fetal calf serum were purchased from Flow Laboratories. In order to remove endogenous steroids, serum was incubated overnight at 4° C. with 1% activated charcoal (Norit A, Fisher) and 0.1% Dextran T-70 (Pharmacia). A 2-h supplementary adsorption was performed at 25° C. in order to further remove protein-bound steroids. Serum was also inactivated by a 20-min incubation at 56° C.\n(§3) 5α-dihydrotestosterone (DHT) was obtained from Steraloids. The antiandrogen hydroxyflutamide (OH-FLU) was kindly supplied by Drs. T. L. Nagabuschan and R. Neri (Schering Corporation, Kenilworth, U.S.A.).\n(§4) Shionogi male mice bearing androgen-sensitive mammary tumors were obtained from Drs. Keishi Matsumoto, Osaka, Japan, and Yvonne Lefebvre, Ottawa, Canada. For primary culture, tumors were excised and washed in ice-cold sterile 25 mM Hepes buffer (137 mM NaCl; 5 mM KCl; 0.7 mM Na2HPO4; 10 mM glucose, pH 7.2). After mincing with scissors, the tumor minces were digested for 2 h at 37° C. in Hepes buffer containing 3.8 mg/ml collagenase (Clostridium, Boehringer), 1.5 mg/ml hyaluronidase II (Sigma), and 3% bovine serum albumin fraction V (Schwartz-Mann). Dispersed cells were collected by centrifugation (500×g for 10 min), washed twice by suspension in minimal essential medium (MEM) containing 5% dextran-coated charcoal-treated fetal calf serum (DCC-FCS), 1% non-essential amino acids, 10 IU/ml penicillin, 50 μg/ml streptomycin, and 100 nM dihydrotestosterone (DHT) (Steraloids).\n(§5) Cells were plated in the same medium at a density of 75 000 cells/ml in 75 cm^2 flasks under an atmosphere of 5% carbon dioxide in air at 37° C. The medium was changed weekly. The steroids and antisteroids were dissolved in ethanol and kept in stock solutions chosen to yield final ethanol concentrations less than 0.01% in the culture medium.\n(§6) Cells were subcultured at near-confidence by gentle digestion in a solution of 0.1% pancreatin (Flow Laboratories) in Hepes buffer containing 3 mM ethylenediaminetetraacetic acid (EDTA) (pH 7.2). Cells were pelleted by centrifugation, resuspended in culture medium, counted in a Coulter counter, and replated as described above. Soft agar cloning was performed as described (Stanley et al., Cell 10: 35-44, 1977) in the presence of 100 nM DHT.\n(§7) Cells were plated in 24-well plates at a density of 20 000 cells/well. The indicated increasing concentrations of agents were added to triplicate dishes, and cells were grown for 10-12 days with changes of medium every 3-4 days. Cell number was measured by direct counting in a Coulter counter.\n(§8) ED50 values of action of DHT and glucocorticoids were calculated according to a least-square regression as described (Rodbard, Endocrinology 94: 1427-1431, 1974). Statistical significance was calculated according to a multiple-range test (Kramer, Biometrics 12: 307-310,1956)."}, "[4]": {"system": "Shionogi mouse mammary carcinoma cells", "assay": "Antiandrogenic activity: inhibition of DHT-induced proliferation of Shionogi cells", "format": "cell-based", "settings": "Table 4′, DHT-induced proliferation", "procedure": "The manner in which the inhibition is determined is described in “Other Tests; B-Androgenic/Antiandrogenic Activity”. Lower numbers are desirable. ND means that a determination was not done.\nas §1, §2, §3, §4, §5, §6, §7, §8"}}, "data": [{"compound": "CC1(C)CCC2(CCC3C4CC(=O)c5cc(O)ccc5C4CCC32C)OC1=O", "note": "(stereo not shown) [EM-01608-D]", "values": [{"measurement": "inhibition", "setting": "[1]; read-out: Inhibition Type 2 17β-HSD Activity [% Inh. at 3 · 10^−8M]", "value": 58, "unit": "%"}, {"measurement": "IC50", "setting": "[2]", "value": "3.6 ± 0.5", "unit": "nM"}]}, {"compound": "CCC1(CC)CC[C@@]2(CC[C@H]3[C@@H]4CCc5cc(O)ccc5[C@H]4CC[C@@]32C)OC1=O", "note": "[EM-1416, 1,3,5(10)-Estratrien-3-ol-17(R)-spiro-2′-(5′,5′-diethyl-6′-oxo)tetrahydropyran]", "values": [{"measurement": "Androgenic Activity Shionogi, Basal E^−6", "setting": "[3]; E^−6", "value": "−4", "unit": "%"}, {"measurement": "Androgenic Activity Shionogi, Basal E^−7", "setting": "[3]; E^−7", "value": 28, "unit": "%"}, {"measurement": "Inhibition Type 2 17β-HSD Activity [% Inh. at 3 · 10^−8M]", "setting": "[1]", "value": "[76] %"}, {"measurement": "Antiandrogenic Activity Shionogi, DHT E^−6", "setting": "[4]; E^−6 (10^−6 M)", "value": "−41", "unit": "%"}, {"measurement": "Antiandrogenic Activity Shionogi, DHT E^−7", "setting": "[4]; E^−7", "value": 26, "unit": "%"}]}]}
